Measurements as given in ChEMBL document CHEMBL1149015, “New taxanes from Taxus brevifolia, 2” (1986).
In brackets after ≈: the same amount, converted by molar mass.

Tested on: KB
Test: Cytotoxicity against human KB cells
Format: functional

Row | Compound | ED50 [×10⁻⁵ ug/ml] | EC50 (Homo sapiens, KB, read-out: ED50 (the source's name)) [µg/mL]
1 | CC(=O)O[C@H]1C(=O)[C@@]2(C)[C@H]([C@H](OC(=O)c3ccccc3)[C@]3(O)C[C@H](OC(=O)[C@H](O)[C@@H](NC(=O)c4ccccc4)c4ccccc4)C(C)=C1C3(C)C)[C@]1(OC(C)=O)CO[C@@H]1C[C@@H]2O [PACLITAXEL] | 1 | –
2 | CC(=O)O[C@H]1C(=O)[C@]2(C)[C@H](O)C[C@H]3OC[C@@]3(OC(C)=O)[C@H]2[C@H](OC(=O)c2ccccc2)[C@]2(O)C[C@H](OC(=O)[C@H](O)[C@@H](NC(=O)c3ccccc3)c3ccccc3)C(C)=C1C2(C)C | 3 | –
3 | CC(=O)O[C@@]12CO[C@@H]1C[C@H](O)[C@@]1(C)C(=O)C(=O)C3=C(C)[C@@H](OC(=O)[C@H](O)[C@@H](NC(=O)c4ccccc4)c4ccccc4)C[C@@](O)([C@@H](OC(=O)c4ccccc4)[C@H]21)C3(C)C | – | 0.02 (≈ 0.0247 µM)
